The data set can be described thus: Arterial blood sampling and radiometabolite analysis after i.v. [^18F]UCB-H. Type of data set: in vivo, cynomolgus monkeys (Macaca fascicularis). The note with it: for intact parent fraction: arterial blood. The method, then: All four non-human primates (NHP) underwent a 2-h (2 h) test and retest PET scan; two NHP underwent an additional 4-h (4 h) retest PET scan. Three NHP underwent one 4-h (4 h) displacement PET scan. Arterial blood sampling was performed during test and retest scans with PET imaging spaced by at least 3 weeks between each scan. To this end, the femoral artery opposite to the saphenous vein used for radioligand injection was cannulated. For the 2-h (2 h) scans, we collected in total 28 blood samples of 1 mL: 16 samples during the first 5 min followed by […] every 5 min and […] every 10 min. For the 4 h scans, we collected an additional 6 samples every 20 min during the last two hours (34 samples in total). Larger samples (2 – 3 mL) were collected at 5, 15, 30, 60, 90, 120 min (2 h) and at 180, 240 min (4 h) for metabolite analysis. Displacement of [^18F]UCB-H was done by intravenous (IV) administration 90 min after [^18F]UCB-H injection of a bolus of 30 mg/kg LEV, or of 80 µg/kg (≈250 nmol/kg) or 5 mg/kg (≈15 µmol/kg) of cold [^19F]-UCB-H. Full experimental design of all NHP is outlined in Additional file 1: Table 1.
Plasma was separated from whole-blood by centrifugation (5 min, 2054xg, 4 °C) and 50 µL of plasma and whole-blood were counted using a PET cross-calibrated gamma well counter (WIZARD^2, PerkinElmer, France) to obtain the whole-blood and plasma activity curves. All data were corrected for radioactive decay from the injection time. For the larger blood samples, 500 µL plasma was deproteinized with acetonitrile. The supernatant was injected in high-performance liquid chromatography, equipped with an Atlantis® T3 5 μm 4.6 × 150 mm column (Waters) and an Atlantis® T3 5 μm 3.9 × 5 mm pre-column (Waters), with an LB-513 radioactivity flow detector (Berthold, La Garenne Colombes, France, MX Z100 cell). The eluant was collected in intervals of 15 s (fraction collector III, Waters, France) and counted in the gamma well counter (WIZARD^2, PerkinElmer, France) to measure total activity. [^18F]UCB-H parent fraction was calculated as a percentage of the total radioactivity (metabolites and parent).
For each animal, a 2-exponential decay function was fitted to [^18F]UCB-H parent fraction, which was time multiplied with the plasma activity curve to obtain the metabolite-corrected arterial plasma input function (mcAIF) used for the kinetic modeling.

SMILES strings stand for the structures.

Consider `O=C1C[C@H](c2cc(F)c(F)c(F)c2)CN1Cc1ccncc1[18F]` [[^18F]UCB-H], for which the intact parent fraction (15 min after tracer injection) is 37 ± 3.9%; the intact parent fraction (30 min after tracer injection) was found to be 29.5 ± 3.4%; the intact parent fraction (60 min after tracer injection) is given as 19 ± 3.5%; the intact parent fraction (120 min after tracer injection) is reported as 14.6 ± 1.9%; the intact parent fraction (240 min after tracer injection) is given as 4.4 ± 0.7%. Further, the “plasma to whole-blood ratio” value (over the entire 120-min acquisition period) worked out at 0.90 ± 0.05.

For the origin of these results see article PMC8026785, “The pharmacokinetics of [^18F]UCB-H revisited in the healthy non-human primate brain” (EJNMMI Research, 2021).
